Like-named read-outs stand apart in the source and are kept apart here.
Tests used:
TR1 T-cell clones = test: T cell response to antigenic stimulus (tritiated thymidine incorporation); format: cell-based; conditions: micellar formulation; GP68-88 or conA; added at start or 24 hours after stimulation; 48 hours
Protocol: Tritiated thymidine incorporation was determined as a measure of T-cell proliferation in response to peptide or conA stimulation.

chondrocytes = test: Viability of non-proliferating chondrocytes (trypan blue); format: cell-based; conditions: up to 10^−5 M, 72 hours
Source text: While it is important that a disease-modifying agent be capable of strongly inhibiting a variety of inappropriate cellular activities (proliferation, inflammation, proteolytic enzyme production) which occur in excess during the development of chronic inflammation, it must not be toxic to the normal tissues. It is particularly critical that normal cells not be damaged, as this would lead to progression of the disease.

skin inflammation = test: Mouse ear skin inflammation (oxazolone delayed-type hypersensitivity, PMA)
Protocol: Briefly, mice were sensitized to oxazolone by topical application of the compound onto the skin. Five days later, mice were challenged with oxazolone by topical application onto the ear skin (left ear: oxazolone, right ear: vehicle alone), resulting in a cutaneous inflammatory, “delayed-type hypersensitivity” reaction. […] Epon-embedded, Giesma-stained, 1 μm tissue sections were evaluated for the presence of inflammatory cells, for the presence of tissue mast cells and their state of activation, and for the degree of epidermal hyperplasia.

neutrophils [1] = test: Neutrophil chemiluminescence assay (opsonized CPPD crystals or zymosan); format: cell-based, human; conditions: Homo sapiens, Neutrophil, 28 μM, read-out: inhibition of the peak chemiluminescence response
Protocol: All experiments that studied neutrophil responses to crystals or zymosan in the presence of paclitaxel were performed using plasma opsonized CPPD or zymosan. Opsonization of crystals or zymosan was done with 50% heparinized plasma at a concentration of 75 mg of CPPD or 12 mg of zymosan per ml of 50% plasma Crystals or zymosan were incubated with plasma for 30 minutes at 37° C. and then washed in excess HBSS.
Neutrophil viability and purity was always greater than 90%.
A stock solution of LY290181 at 100 μM in HBSS was freshly prepared.
All chemiluminescence studies were performed at a cell concentration of 5,000,000 cells/ml in HBSS with CPPD (50 mg/ml). In all experiments 0.5 ml of cells was added to 25 mg of CPPD or 0.5 mg of zymosan in 1.5 ml capped Eppendorf tubes. 10 μl of luminol dissolved in 25% DMSO in HBSS was added to a final concentration of 1 μM and the samples were mixed to initiate neutrophil activation by the crystals or zymosan. Chemiluminescence was monitored using an LKB Luminometer (Model 1250) at 37° C. for 20 minutes with shaking immediately prior to measurements to resuspend the crystals or zymosan. Control tubes contained cells, drug and luminol (crystals absent).

[2] = system: restenosis / intimal hyperplasia; test: Rat carotid artery balloon injury model of restenosis, perivascular treatment; format: in vivo; conditions: paclitaxel-loaded (20%) polymers (EVA film or PCL paste), 2.5 mg perivascular; 14 and 28 days
Protocol: WISTAR rats weighing 250 to 300 g were anesthetized by the intramuscular injection of Innovar (0.33 ml/kg). Once sedated they were then placed under Halothane anesthesia After general anesthesia was established, fur over the neck region was shaved, the skin clamped and swabbed with betadine. A vertical incision was made over the left carotid artery and the external carotid artery exposed. Two ligatures were placed around the external carotid artery and a transverse arteriotomy was made. […] The endothelium was denuded by passing the inflated balloon up and down the carotid artery three times. The catheter was then removed and the ligature tied off on the left external carotid artery. […] The wound was then closed.

EOMA cells = test: Endothelial cell proliferation (trypan blue exclusion); format: cell-based; conditions: 48 hours
Protocol: Following the incubation, the number of viable cells were determined using the trypan blue exclusion assay. […] All cell toxicity assays were performed three times, and each individual measurement was made in triplicate.

collagenase (MMP-1) mRNA = test: IL-1 induced collagenase mRNA expression in chondrocytes (Northern blot); format: cell-based, calf
Protocol: Total RNA was isolated, and the MMP-1 mRNA levels were determined by Northern blot analysis. The blots were subsequently stripped and reprobed with ^32P-radiolabeled rat GAPDH cDNA, which was used as a housekeeping gene. The results shown are representative of four independent experiments. Quantitation of collagenase-1 and stromelysin-expression mRNA levels. The MMP-1 and MMP-3 expression levels were normalized with GAPDH.
Primary chondrocyte cultures were freshly isolated from calf cartilage. The cells were plated at 2.5×10^6 per ml in 100×20 mm culture dishes and incubated in Ham's F12 medium containing 5% FBS overnight at 37° C. […] IL-1 (20 ng/ml) was then added to each plate and the plates incubated for an additional 18 hours. Total RNA was isolated by the acidified guanidine isothiocyanate method and subjected to electrophoresis on a denatured gel. Denatured RNA samples (15 μg) were analyzed by gel electrophoresis in a 1% denatured gel, transferred to a nylon membrane and hydridized with the ^32P-labeled collagenase cDNA probe. ^32P-labeled glyceraldehyde phosphate […] (GAPDH) cDNA as an internal standard to ensure roughly equal loading. The exposed films were scanned and quantitatively analyzed with ImageQuant.

neutrophils [3] = conditions: human, 1 h, 46 µM
Protocol: Neutrophils were prepared from freshly collected human citrated whole blood. Briefly, 400 ml of blood were mixed with 80 ml of 4% dextran T500 (Phamacia LKB, Biotechnology AB Uppsala, Sweden) in HBSS and allowed to settle for 1 hour. Plasma was collected continuously and 5 ml applied to 5 ml of Ficoll Paque (Pharmacia) in 15 ml polypropylene tubes (Corning, N.Y.). Following centrifugation at 500 g for 30 minutes, the neutrophil pellets were washed free of erythrocytes by 20 seconds of hypotonic shock. Neutrophils were resuspended in HBSS, kept on ice and used for experiments within 3 hours. Neutrophil viability and purity was always greater than 90%.
To determine the effect of the anti-microtubule agents on neutrophil viability the release of the cytoplasmic marker enzyme, lactate dehydrogenase (LDH) was measured. Control tubes containing cells with drug (crystals absent) from degranulation experiments were also assayed for LDH.

stromelysin (MMP-3) mRNA = test: IL-1 induced stromelysin mRNA expression in chondrocytes (Northern blot); format: cell-based
Source text: The blots were subsequently stripped and reprobed with ^32P-radiolabeled rat GAPDH cDNA, which was used as a housekeeping gene. […] The MMP-1 and MMP-3 expression levels were normalized with GAPDH.

[4] = system: chick chorioallantoic membrane (CAM) vasculature; conditions: for CAM vasculature: 2-day exposure
NF-κB = NF-κB activity (cell-based) reporter assay in NIH-3T3; parameters: species or system murine; conditions: 6-hour and 24-hour treatments
Protocol: IL-1 and TNF were both identified as being proinflammatory cytokines that activate the transcription of genes driven by a transcription factor named NF-κB also involved in inflammatory processes. The inflammatory effect of IL-1 and TNF can therefore be indirectly assessed by means of a reporter gene assay (NF-κB) responding to IL-1 and TNF stimulation.
On day one, 5×10^4 NIH-3T3 (murine fibroblast), stably transfected with a NF-κB reporter construct (Luciferase, Promega Corp.), were plated per well (24-well plate). Once confluent (on day 3-4), cells were starved by replacing the complete medium with 1 ml of serum-free medium. Following a 24-hour starvation, cells were treated with various concentrations of anti-microtubule agents 6 hours prior to the addition of IL-1 (20 ng/ml) and TNF (20 ng/ml). Cells were exposed to IL-1 and TNF for 1 hour and 16 hours and NF-κB activity measured 24 hours later. On day five, the medium was discarded and the cells were rinsed once with PBS. Cells were then extracted for 15 minutes with 250 μl of lysis buffer (Promega Corp., Wisconsin). NF-κB transcriptional activity was assessed by adding 25 μl of luciferase substrate to a tube containing 2.5 μl of cell extract. The tube was immediately inserted in a luminometer (Turner Designs) and light emission measured for 10 seconds. The luciferase data were then normalized for protein concentration.

[5] = 10^−5 M, pretreatment 24 hours, IL-1

## CC(=O)O[C@H]1C(=O)[C@@]2(C)[C@H]([C@H](OC(=O)c3ccccc3)[C@]3(O)C[C@H](OC(=O)[C@H](O)[C@@H](NC(=O)c4ccccc4)c4ccccc4)C(C)=C1C3(C)C)[C@]1(OC(C)=O)CO[C@@H]1C[C@@H]2O [paclitaxel]
TR1 T-cell clones
  concentration at which T-cell proliferation was (completely) inhibited: 0.02 µM
chondrocytes
  viability of normal non-proliferating cells: does not affect the viability
Skin inflammation; 1% paclitaxel formulation, 20 μl to each side of the ears daily for 8 days, normal or inflamed ear skin
  skin irritation: no detection of skin irritation
Skin inflammation; topical 1% paclitaxel formulation
  ear swelling and skin erythema induced by PMA: significantly inhibited ear swelling and skin erythema
Skin inflammation; topical 1% paclitaxel gel versus vehicle alone
  ear swelling, delayed-type hypersensitivity reaction (oxazolone): significant decrease in ear swelling
Neutrophils [1]; plasma opsonized CPPD
  inhibition at 28 µM: 52%
Neutrophils [1]; plasma opsonized zymosan
  inhibition at 28 µM: 45%
[2]
  restenosis: completely prevented restenosis
EOMA cells; 10^−7M or greater
  inhibition of endothelial cell proliferation: completely inhibited cell proliferation
EOMA cells; Endothelial cell, 10^−8M
  inhibition at 0.01 µM: > 50%
Collagenase (MMP-1) mRNA
  concentration inhibiting collagenase expression in vitro: 10^−6 M
Collagenase (MMP-1) mRNA; [5]
  collagenase mRNA levels: complete inhibition
Neutrophils [3]
  LDH release: less than 5 % of total
Stromelysin (MMP-3) mRNA
  concentration inhibiting stromelysin expression in vitro: 10^−6 M
Stromelysin (MMP-3) mRNA; [5]
  stromelysin mRNA levels: complete inhibition
[4]; 5% paclitaxel-loaded PCL microspheres, 1 mg
  CAM vasculature: marked vascular regression and zones which were devoid of a capillary network
[4]; 48 hour exposure to 10 μg paclitaxel per 10 ml of methylcellulose
  diameter of avascular areas: approximately 6 mm
[4]; after application
  avascular zones did not revascularize for: at least 7 days
  inhibition of angiogenesis occurs as early as: 9 h
[4]; maximal avascular zone within 48 hours depending on concentration, methylcellulose disk
  avascular gradient scale: 3
[4]; micellar solution (10 ul), 10%
  Inhibition/n: too toxic
[4]; paclitaxel-gelatin-PCL paste, 1 mg pieces
  CAM vasculature: consistently showed vascular regression and zones which lacked a capillary network
[4]; within 48 hours depending on concentration, methylcellulose disk
  maximal avascular zone diameter: 6 mm
NF-κB
  inhibitory effect on IL-1- and TNF-induced NF-κB activity: ~2 µM

Source: patent US6689803B2, “Compositions and methods for treating surgical adhesions” (Angiotech Pharmaceuticals, Inc., priority 1996, dated 2004)
